The text below walks through data of patent US12036230B2, “PTEN inhibitors for treatment and prevention of bone marrow loss” (NISIBIS, LLC-S, priority 2020, dated 2024).

In this experiment the target is T1, Human recombinant PTEN (Homo sapiens, UniProt P60484).
T1 construct: host or cells: Escherichia coli
Kind of experiment: PTEN inhibitor screen: conversion of DiFMUP to DiFMU by recombinant PTEN, spectrofluorometric. It is filed as biochemical. As for the experimental part: Candidate PTEN inhibitor compounds were identified and screened for PTEN inhibition in vitro. Human recombinant PTEN purified from Escherichia coli was assayed for conversion of synthetic phosphotyrosine analog 6,8-difluoro-4-methylumbelliferyl phosphate (DiFMUP) to 6,8-difluoro-7-hydroxy-4-methylcoumarin (DiFMU) in the presence of the various candidate PTEN inhibitors. The reaction was carried out at 37° C. for 1 hour in a reaction mixture containing 100 μM of DiFMUP, 50 mM Tris-HCl (pH 8.5), 0.01% bovine serum albumin, 1 mM dithiothreitol, and 2 mM ethylenediaminetetraacetic acid. PTEN activity was measured by spectrofluorometric quantitation of increasing DiFMU over time.

The mark [1] stands for this setting: 100 μM DiFMUP, 37° C., 1 hour, pH 8.5, read-out: IC50.
The mark [2] stands for this setting: candidate PTEN inhibitor at 10 μM, 100 μM DiFMUP, 37° C., 1 hour, pH 8.5, read-out: % Inhibition.
[3] abbreviates: candidate PTEN inhibitor at 10 μM, 100 μM DiFMUP, 37° C., 1 hour, pH 8.5.

As a reminder, the pIC50 is −log10 of the IC50, conventionally taken in molar units. The inhibition is the relative decrease from the control value, in per cent. The % Inhibition is the drop in the measured response relative to a control, in per cent.

pIC50: −log10 of the molar value. Where two headings read alike, the source gives them in different places. Numbered stars: 1 amine (or outer) side, 2 acyl side, 3 side chain; on linkers, the order of the positions; unused ones are H or OH. Bridge positions count the residues as written; N and C are the ends. Square brackets hold non-standard residues; d marks the D form. Peptide text beside a SMILES is read from it. Orn = NCCC[C@H](N)C(=O)O; X1 = O=C(CCC[*:2])[*:1]; Mpa = O=C(O)CCS

T1 sequence (P60484 whole entry): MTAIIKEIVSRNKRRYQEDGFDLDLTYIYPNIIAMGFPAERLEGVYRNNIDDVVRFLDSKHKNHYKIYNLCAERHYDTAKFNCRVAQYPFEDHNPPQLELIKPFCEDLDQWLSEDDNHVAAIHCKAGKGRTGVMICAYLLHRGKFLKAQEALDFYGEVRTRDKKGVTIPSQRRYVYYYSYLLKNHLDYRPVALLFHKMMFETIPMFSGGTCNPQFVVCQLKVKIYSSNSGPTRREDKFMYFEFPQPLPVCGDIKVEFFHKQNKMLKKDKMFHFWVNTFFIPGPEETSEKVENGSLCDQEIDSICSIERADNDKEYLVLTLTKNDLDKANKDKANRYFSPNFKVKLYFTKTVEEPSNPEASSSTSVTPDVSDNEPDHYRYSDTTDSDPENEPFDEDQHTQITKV

As to `Cc1cc2nc3c(=O)[nH]c(=O)nc-3n(C[C@H](O)[C@H](O)[C@H](O)COP(=O)(O)OP(=O)(O)OC[C@H]3O[C@@H](n4cnc5c(N)ncnc54)[C@H](O)[C@@H]3O)c2cc1C` [flavin adenine dinucleotide], under setting [1], the pIC50 is less than 5.00. In addition, under setting [2], the inhibition at 10 µM stood at 13%.
In the same order, the values of `CC(C)(C)CC(C)(C)c1cc(Cc2cc(C(C)(C)CC(C)(C)C)cc(-n3nc4ccccc4n3)c2O)c(O)c(-n2nc3ccccc3n2)c1` [bisoctrizole] are less than 5.00 and 5%.
`CC1(C)C(/C=C/C=C/C=C/C=C2\N(CCCCS(=O)(=O)O)c3ccc4ccccc4c3C2(C)C)=[N+](CCCCS(=O)(=O)[O-])c2ccc3ccccc3c21` [indocyanine green acid form]: the pIC50 under setting [1] was 5.53. In addition, the inhibition at 10 µM under setting [2] turned out to be 74%.
In the same order, the values of `CC(C)c1c(C(=O)Nc2ccccc2)c(-c2ccccc2)c(-c2ccc(F)cc2)n1CC[C@@H](O)C[C@@H](O)CC(=O)O` [atorvastatin] are less than 5.00 and 4%.
As for Candicidin, the pIC50 under setting [1] is 5.79. The “% Inhibition” value under setting [3] was found to be 91%.
On to `C[C@H](N)C(=O)NCC(=O)N[C@H]1CSSC[C@@H](C(=O)O)NC(=O)[C@H](CO)NC(=O)[C@H]([C@@H](C)O)NC(=O)[C@H](Cc2ccccc2)NC(=O)[C@H]([C@@H](C)O)NC(=O)[C@H](CCCCN)NC(=O)[C@H](Cc2c[nH]c3ccccc23)NC(=O)[C@H](Cc2ccccc2)NC(=O)[C@H](Cc2ccccc2)NC(=O)[C@H](CC(N)=O)NC(=O)[C@H](CCCCN)NC1=O` [somatostatin], for which the pIC50 was less than 5.00. The inhibition at 10 µM (pH 8.5) worked out at 5%.
Take `CCCCCCCC/C=C\CCCCCCCC(=O)O[C@H](COC(=O)CCCCCCCCCCCCCCC)COP(=O)(O)OCC(O)CO` (mixture of isomers) [1-palmitoyl-2-oleoyl-sn-glycero-3-(phospho-rac-(1-glycerol))]: the pIC50 under setting [1] was 5.75. Further, under setting [2], the inhibition at 10 µM worked out at 85%.
Take `CCc1c(Cl)c(O)c(Cl)c(O)c1C(=O)O[C@H]1[C@H](O)[C@H](OC)[C@H](OC/C2=C\C=C\C[C@H](O)/C(C)=C/[C@H](CC)[C@@H](O[C@@H]3OC(C)(C)[C@@H](OC(=O)C(C)C)[C@H](O)[C@@H]3O)/C(C)=C/C(C)=C/C[C@@H]([C@@H](C)O)OC2=O)O[C@@H]1C` [fidaxomicin]: under setting [1], the pIC50 is less than 5.00. Besides, the inhibition at 10 µM under setting [2] was found to be 11%.
Turning to Verteporfin, the pIC50 under setting [1] was 5.24. In addition, the “% Inhibition” value under setting [3] is 98%.
As for `CO[C@H]1C[C@@H]2CC[C@@H](C)[C@@](O)(O2)C(=O)C(=O)N2CCCC[C@H]2C(=O)O[C@H]([C@H](C)C[C@@H]2CC[C@@H](O)[C@H](OC)C2)CC(=O)[C@H](C)/C=C(\C)[C@@H](O)[C@@H](OC)C(=O)[C@H](C)C[C@H](C)/C=C/C=C/C=C/1C` [sirolimus], the negative logarithm of the IC50 (pIC50) under setting [1] is less than 5.00. In addition, the inhibition at 10 µM under setting [2] turned out to be 3%.
Regarding `C#C[C@]1(O)CC[C@H]2[C@@H]3CCC4=CC(=O)CC[C@@H]4[C@H]3C(=C)C[C@@]21CC` [etonogestrel], the pIC50 under setting [1] was less than 5.00. Moreover, the inhibition at 10 µM under setting [2] was 2%.
In the case of `CCOc1ccc(C[C@H]2NC(=O)CCSSC[C@@H](C(=O)N3CCC[C@H]3C(=O)N[C@@H](CCCN)C(=O)NCC(N)=O)NC(=O)[C@H](CC(N)=O)NC(=O)[C@H]([C@@H](C)O)NC(=O)[C@H]([C@@H](C)CC)NC2=O)cc1` [atosiban] ([Mpa][dY](Et)ITNCP[Orn]G-NH2; disulfide 1-6), the pIC50 was less than 5.00. In addition, the inhibition at 10 µM under setting [2] came out at 12%.
Regarding Cyanocobalamin, the pIC50 under setting [1] was 5.51. The “% Inhibition” value under setting [3] came to 85%.
`CC(C)c1nc(CN(C)C(=O)N[C@@H](CCN2CCOCC2)C(=O)N[C@H](CC[C@H](Cc2ccccc2)NC(=O)OCc2cncs2)Cc2ccccc2)cs1` [Cobicistat]: the pIC50 under setting [1] is less than 5.00. Under setting [2], the inhibition at 10 µM is 24%.
In the same order, the values of `Cc1ccccc1-c1cc(N2CCN(C)CC2)ncc1N(C)C(=O)C(C)(C)c1cc(C(F)(F)F)cc(C(F)(F)F)c1` [netupitant] are less than 5.00 and 12%.
Turning to `COc1ccc(CC2c3cc(OC)c(OC)cc3CC[N+]2(C)CCC(=O)OCCCCCOC(=O)CC[N+]2(C)CCc3cc(OC)c(OC)cc3C2Cc2ccc(OC)c(OC)c2)cc1OC` (stereo not shown) [atracurium besylate], the negative-log IC50 (pIC50) under setting [1] was less than 5.00. In addition, under setting [2], the inhibition at 10 µM came to 16%.
In the same order, the values of `CC(=O)O[C@H]1C[C@@H]2CC[C@@H]3[C@H](CC[C@@]4(C)[C@H]3C[C@H]([N+]3(C)CCCCC3)[C@@H]4OC(C)=O)[C@@]2(C)C[C@@H]1[N+]1(C)CCCCC1` [pancuronium] are less than 5.00 and 11%.
For `CC[C@H](C)[C@@H]1NC(=O)[C@H](Cc2ccc(OC)cc2)NC(=O)CCCSC[C@@H](C(=O)N2CCC[C@H]2C(=O)N[C@@H](CC(C)C)C(=O)NCC(N)=O)NC(=O)[C@H](CC(N)=O)NC(=O)[C@H](CCC(N)=O)NC1=O` [carbetocin] (Y(Me)IQNCPLG-NH2; linker N-5 via X1), the negative logarithm of the IC50 (pIC50) under setting [1] was less than 5.00. For the same compound, the inhibition at 10 µM under setting [2] was found to be 1%.
`CCCCCCCCCCCCCC(=O)OCC(COP(=O)(O)OCC(O)CO)OC(=O)CCCCCCCCCCCCC` (racemic) [DL-dimyristoylphosphatidylglycerol]: the pIC50 under setting [1] is 5.40. The “% Inhibition” value under setting [3] came to 71%.
On to `Cc1cc(-c2ccc(/N=N/c3c(S(=O)(=O)O)cc4cc(S(=O)(=O)O)cc(N)c4c3O)c(C)c2)ccc1/N=N/c1c(S(=O)(=O)O)cc2cc(S(=O)(=O)O)cc(N)c2c1O` [trypan blue free acid], for which, under setting [1], the pIC50 is 5.36. For the same compound, under setting [2], the inhibition at 10 µM came to 79%.
With `CCC[C@H](NC(=O)[C@@H]1[C@H]2CCC[C@H]2CN1C(=O)[C@@H](NC(=O)[C@@H](NC(=O)c1cnccn1)C1CCCCC1)C(C)(C)C)C(=O)C(=O)NC1CC1` [telaprevir], the pIC50 is less than 5.00. Besides, the inhibition at 10 µM (pH 8.5) was 3%.
Regarding `Clc1ccc(C(c2ccccc2Cl)C(Cl)Cl)cc1` (stereo not shown) [mitotane], the pIC50 under setting [1] is less than 5.00. Also, the inhibition at 10 µM under setting [2] was found to be 13%.
The corresponding values for `CO[C@H]1O[C@H](COS(=O)(=O)O)[C@@H](O[C@@H]2O[C@@H](C(=O)O)[C@@H](O[C@H]3O[C@H](COS(=O)(=O)O)[C@@H](O[C@@H]4O[C@H](C(=O)O)[C@@H](O[C@H]5O[C@H](COS(=O)(=O)O)[C@@H](O)[C@H](O)[C@H]5NS(=O)(=O)O)[C@H](O)[C@H]4O)[C@H](OS(=O)(=O)O)[C@H]3NS(=O)(=O)O)[C@H](O)[C@H]2OS(=O)(=O)O)[C@H](O)[C@H]1NS(=O)(=O)O` [Fondaparinux] are 5.56 and 80%.
For the compound `O=C(O)CN(CC(=O)O)Cc1cc2c(cc1O)Oc1cc(O)c(CN(CC(=O)O)CC(=O)O)cc1C21OC(=O)c2ccccc21` [Oftasceine], the pIC50 under setting [1] was less than 5.00. Further, under setting [2], the inhibition at 10 µM was found to be 37%.
The corresponding values for `O=C(OC[C@H]1O[C@@H](OC(=O)c2cc(O)c(O)c(OC(=O)c3cc(O)c(O)c(O)c3)c2)[C@H](OC(=O)c2cc(O)c(O)c(OC(=O)c3cc(O)c(O)c(O)c3)c2)[C@@H](OC(=O)c2cc(O)c(O)c(OC(=O)c3cc(O)c(O)c(O)c3)c2)[C@@H]1OC(=O)c1cc(O)c(O)c(OC(=O)c2cc(O)c(O)c(O)c2)c1)c1cc(O)c(O)c(OC(=O)c2cc(O)c(O)c(O)c2)c1` [tannic acid] are 6.47 and 92%.
Consider hyaluronic acid, for which the pIC50 under setting [1] is less than 5.00. Further, the “% Inhibition” value under setting [3] worked out at 2%.
Take `CCC1=C[C@@H]2CN(C1)Cc1c([nH]c3ccccc13)[C@@](C(=O)OC)(c1cc3c(cc1OC)N(C)[C@H]1[C@@](O)(C(=O)OC)[C@H](OC(C)=O)[C@]4(CC)C=CCN5CC[C@]31[C@@H]54)C2` [vinorelbine]: the pIC50 under setting [1] was less than 5.00. Under setting [2], the inhibition at 10 µM worked out at 19%.
In the case of `C=C1CC[C@H]2[C@@H](/C=C(\C)C(=O)[C@@]3(OC(C)=O)C[C@H](C)[C@H](OC(=O)c4ccccc4)[C@@H]3[C@H]1OC(C)=O)C2(C)C` [diacetyl benzoyl lathyrol], under setting [1], the pIC50 is less than 5.00. Further, under setting [3], the “% Inhibition” value was determined as 25%.
`CO[C@H]1C[C@@H]2CC[C@@H](C)[C@@](O)(O2)C(=O)C(=O)N2CCCC[C@H]2C(=O)O[C@H]([C@H](C)C[C@@H]2CC[C@@H](OCCO)[C@H](OC)C2)CC(=O)[C@H](C)/C=C(\C)[C@@H](O)[C@@H](OC)C(=O)[C@H](C)C[C@H](C)/C=C/C=C/C=C/1C` [Everolimus]: the pIC50 under setting [1] was less than 5.00. Further, under setting [2], the inhibition at 10 µM came to 33%.
For the compound `C[C@@H]1CC(=O)NN=C1c1ccc(NN=C(C#N)C#N)cc1` [Levosimendan], the pIC50 under setting [1] is less than 5.00. In addition, the inhibition at 10 µM under setting [2] worked out at 24%.
On to `O=C1CCCC(=O)C1C(=O)c1ccc(C(F)(F)F)cc1[N+](=O)[O-]` [nitisinone], for which the pIC50 under setting [1] is less than 5.00. Also, the inhibition at 10 µM under setting [2] was found to be 1%.
With `C[C@@H]1C/C=C/C=C/C=C/C=C/[C@H](O[C@@H]2O[C@H](C)[C@@H](O)[C@H](N)[C@@H]2O)C[C@@H]2O[C@](O)(C[C@@H](O)C[C@H]3O[C@@H]3/C=C/C(=O)O1)C[C@H](O)[C@H]2C(=O)O` [natamycin], the pIC50 under setting [1] was less than 5.00. The inhibition at 10 µM under setting [2] is 3%.
